Values of other authors, collected in patent publication US20060281715A1, “Phosphates of secondary alcohols” (priority 2003, published 2006).

Key:
[1] = major metabolite
[2] = oral administration
noradrenaline uptake = conditions: enantiomers of venlafaxine
seratonin uptake = conditions: enantiomers of venlafaxine

In the case of COc1ccc(C(CN(C)C)C2(O)CCCCC2)cc1 (stereo not drawn) [Venlafaxine], the “time to mean peak plasma concentrations” value (following single 25 to 150 mg doses) is given as “approximately 2.4 hours”.

In the case of CN(C)CC(c1ccc(O)cc1)C1(O)CCCCC1 (stereo not drawn) [O-desmethylvenlafaxine], the half-life (calculated) is listed as 11 h and the “potency compared with venlafaxine” value [1] is listed as “equally potent”.

In the case of CC[C@H](C)C(=O)O[C@H]1C[C@H](O)C=C2C=C[C@H](C)[C@H](CC[C@@H](O)C[C@@H](O)CC(=O)O)[C@H]21 [Pravastatin], the “time to peak plasma levels” value [2] is listed as “about an hour and a half”.

For COc1ccc(C(CN(C)C)C2(O)CCCCC2)cc1 (single isomer, unassigned) [R-enantiomer], the “potency as inhibitor of noradrenaline uptake, compared with other enantiomer” value (noradrenaline uptake) is given as “more potent”.

In the case of COc1ccc(C(CN(C)C)C2(O)CCCCC2)cc1 (single isomer, unassigned) [S-enantiomer], the “potency as inhibitor of seratonin uptake, compared with other enantiomer” value (seratonin uptake) is given as “more potent”.
